Source: US10745401B2, “Condensed lactam derivative” (Sumitomo Dainippon Pharma Co., Ltd., priority 2018, dated 2020)

How the values were obtained:
[1] = Test 4: metabolic stability test in human hepatic microsome; assay type: in vitro ADME; conditions: 0.1 mg/mL microsome, 0.1 μmol/L compound, 37° C., 30 minutes
How it was run: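 LC-MS quantified remaining parent after 30 min, 37° C, in pH 7.4 25 mmol/L phosphate containing 0.1 mg/mL human hepatic microsomes, 3.2 mmol/L NADPH and 0.1 μmol/L test compound. Value given as −LN(residual ratio)/30/0.1, mL/min/mg protein.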

hERG channel = hERG channel (Homo sapiens (Human), UniProt Q12809); assay: Test 6-1: inhibitory activity for hERG channel (auto patch clamp, Qpatch); assay type: cell-based; conditions: whole cell auto patch clamp, hERG-CHO cells; read-out: hERG inhibition IC50
How it was run: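 Whole-cell patch clamp on an automated system using CHO cells stably expressing human hERG (IKr); 15 s pulse interval. Four increasing compound concentrations applied cumulatively; mean peak tail current from last 3 stimulations per concentration used. IC50 from inhibition versus pre-compound current, fitted by Hill equation.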

human 5-HT1A receptor [2] = target: T1, human 5-HT1A receptor (Homo sapiens (Human), UniProt P08908); assay: Test 2: agonist activity for human 5-HT1A receptor ([35S]GTPγS binding); assay type: biochemical; conditions: for EC50: [35S]GTPγS binding, concentration at which half the activity of Emax was obtained; for Emax at 10 µM: agonist activity in the presence of 10 μM of compound, relative to 100 μmol/L 5-HT
How it was run: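 [35S]GTPγS binding read-out: after 60 min at room temperature with test compound in GDP buffer, human 5-HT1A receptor CHO membranes were vacuum-filtered and retained radioactivity scintillation-counted. Agonist activity calculated by formula.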

human 5-HT1A receptor [3] = target: T1, human 5-HT1A receptor; assay: Test 1: binding activity for human 5-HT1A receptor ([3H]8-OH-DPAT, CHO cell membrane fraction)
How it was run: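 Membranes incubated with [3H]8-OH-DPAT and compound for 60 min at room temperature, then filtered on polyethylenimine-coated glass-fibre plates and counted by liquid scintillation. IC50 from Hill analysis; Ki = IC50/(1+S/Kd), Kd from saturation binding on the same membranes.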

human D2 receptor = human D2 receptor (Homo sapiens (Human), UniProt P14416); assay: Test 1: binding activity for human D2 receptor ([3H]Spiperone, CHO cell membrane fraction); conditions: human D2 receptor, [3H]Spiperone
How it was run: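 Compound displacement of [3H]ketanserin at 5-HT2A or [3H]spiperone at D2 was measured in CHO membrane fractions after 60 min at room temperature, with filtration and scintillation counting. IC50 was converted to Ki by Cheng–Prusoff using ligand concentration and Kd from saturation binding.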

hERG channel, sequence (Q12809 whole entry): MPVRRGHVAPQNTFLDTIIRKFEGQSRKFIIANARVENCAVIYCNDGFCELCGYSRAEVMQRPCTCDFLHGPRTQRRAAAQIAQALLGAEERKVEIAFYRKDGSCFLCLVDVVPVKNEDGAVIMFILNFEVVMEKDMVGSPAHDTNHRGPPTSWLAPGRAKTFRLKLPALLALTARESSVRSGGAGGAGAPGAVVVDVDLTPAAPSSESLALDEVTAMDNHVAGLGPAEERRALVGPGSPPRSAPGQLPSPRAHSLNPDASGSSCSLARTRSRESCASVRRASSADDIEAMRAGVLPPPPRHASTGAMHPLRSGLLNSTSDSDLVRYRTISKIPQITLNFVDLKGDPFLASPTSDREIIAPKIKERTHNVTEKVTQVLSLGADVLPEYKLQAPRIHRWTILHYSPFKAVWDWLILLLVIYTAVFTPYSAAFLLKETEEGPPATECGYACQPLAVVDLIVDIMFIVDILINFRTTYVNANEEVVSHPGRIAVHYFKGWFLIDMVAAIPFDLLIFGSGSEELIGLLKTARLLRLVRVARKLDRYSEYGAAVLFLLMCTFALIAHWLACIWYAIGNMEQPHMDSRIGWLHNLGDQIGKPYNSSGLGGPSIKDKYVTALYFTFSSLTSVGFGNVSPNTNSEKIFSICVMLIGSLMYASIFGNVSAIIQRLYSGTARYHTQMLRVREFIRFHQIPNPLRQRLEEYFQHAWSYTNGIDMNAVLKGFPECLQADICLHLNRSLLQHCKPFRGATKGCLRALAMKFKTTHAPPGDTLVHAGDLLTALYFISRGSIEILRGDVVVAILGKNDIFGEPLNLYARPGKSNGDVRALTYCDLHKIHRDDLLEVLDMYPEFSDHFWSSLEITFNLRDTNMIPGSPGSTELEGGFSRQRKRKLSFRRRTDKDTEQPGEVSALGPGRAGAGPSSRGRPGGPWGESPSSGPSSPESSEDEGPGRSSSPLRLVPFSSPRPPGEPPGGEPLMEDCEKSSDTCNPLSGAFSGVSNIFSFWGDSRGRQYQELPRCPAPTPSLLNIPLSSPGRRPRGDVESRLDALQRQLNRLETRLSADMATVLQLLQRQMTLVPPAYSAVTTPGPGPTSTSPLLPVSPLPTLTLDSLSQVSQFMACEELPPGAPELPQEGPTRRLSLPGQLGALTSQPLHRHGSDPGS
T1 sequence (P08908 whole entry): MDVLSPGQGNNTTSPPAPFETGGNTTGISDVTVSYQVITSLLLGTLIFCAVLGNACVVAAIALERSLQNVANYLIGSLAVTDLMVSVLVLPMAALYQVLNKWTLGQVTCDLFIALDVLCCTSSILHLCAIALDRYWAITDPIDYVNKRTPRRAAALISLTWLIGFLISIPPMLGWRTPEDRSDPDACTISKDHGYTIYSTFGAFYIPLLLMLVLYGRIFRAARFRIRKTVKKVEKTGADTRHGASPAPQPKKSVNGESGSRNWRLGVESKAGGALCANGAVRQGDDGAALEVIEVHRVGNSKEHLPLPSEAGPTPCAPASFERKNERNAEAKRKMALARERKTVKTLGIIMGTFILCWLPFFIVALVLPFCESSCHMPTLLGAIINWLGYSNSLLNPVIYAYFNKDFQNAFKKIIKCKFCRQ
human D2 receptor, sequence (P14416 whole entry): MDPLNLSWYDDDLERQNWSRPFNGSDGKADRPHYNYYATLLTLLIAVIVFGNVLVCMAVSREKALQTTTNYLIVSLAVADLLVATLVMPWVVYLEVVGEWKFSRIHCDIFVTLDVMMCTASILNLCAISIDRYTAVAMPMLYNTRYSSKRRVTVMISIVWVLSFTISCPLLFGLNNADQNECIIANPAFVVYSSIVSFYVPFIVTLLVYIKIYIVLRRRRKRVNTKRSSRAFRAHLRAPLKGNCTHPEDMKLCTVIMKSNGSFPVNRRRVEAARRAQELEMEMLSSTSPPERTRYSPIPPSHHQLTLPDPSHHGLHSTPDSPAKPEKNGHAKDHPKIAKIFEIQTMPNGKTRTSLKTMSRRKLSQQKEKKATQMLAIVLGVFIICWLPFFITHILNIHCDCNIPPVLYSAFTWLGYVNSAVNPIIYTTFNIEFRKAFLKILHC

Row | Structure (SMILES) | Metabolic stability in human hepatic microsome [1] | IC50 (hERG channel) | EC50 (human 5-HT1A receptor [2]) | Emax at 10 µM (human 5-HT1A receptor [2]) | Ki (human 5-HT1A receptor [3]) | Ki (human D2 receptor)
1 | COc1c2c(nn1C)CCN(CCN1CCN(c3nsc4ccccc34)CC1)C2=O [Example 106, 5-{2-[4-(1,2-Benzoisothiazol-3-yl)piperazin-1-yl]ethyl}-3-methoxy-2-methyl-2,5,6,7-tetrahydro-4H-pyrazolo[4,3-c]pyridin-4-one] | 0.244 mL/min/mg protein | 4800 nM | 38.4 nM | 74% | 1.63 nM | 804 nM
2 | O=C1c2cn(C3CC3)nc2CCN1CCN1CCC(c2noc3ccccc23)CC1 [Example 76] | 0.018 mL/min/mg protein | < 270 nM | 4.13 nM | 35% | 6.48 nM | 472 nM
3 | CCc1cc2c(cn1)C(=O)N(CCN1CCN(c3nsc4ccccc34)CC1)CC2 [Example 104, 2-{2-[4-(1,2-Benzoisothiazol-3-yl)piperazin-1-yl]ethyl}-6-ethyl-3,4-dihydro-2,7-naphthyridin-1(2H)-one] | 0.358 mL/min/mg protein | 700 nM | 1.99 nM | 64% | 0.41 nM | 93 nM
4 | N#Cc1cc2c(cn1)C(=O)N(CCN1CCN(c3nsc4ccccc34)CC1)CC2 [Example 102, 7-{2-[4-(1,2-Benzoisothiazol-3-yl)piperazin-1-yl]ethyl}-8-oxo-5,6,7,8-tetrahydro-2,7-naphthyridine-3-carbonitrile] | 0.194 mL/min/mg protein | 1000 nM | 1.1 nM | 74% | 0.25 nM | 852 nM
5 | Cc1nc2c(o1)CCN(CCN1CCN(c3nsc4ccccc34)CC1)C2=O [Example 51] | 0.074 mL/min/mg protein | 5100 nM | 2.08 nM | 61% | 0.23 nM | 993 nM
6 | Cn1ncc2c1CCN(CCN1CCC(c3noc4ccccc34)CC1)C2=O [Example 130] | <0.05 mL/min/mg protein | 1600 nM | 841 nM | 44% | 23.8 nM | 541 nM
7 | CC(C)n1cc2c(n1)CCN(CCN1CCN(c3nsc4ccccc34)CC1)C2=O [Example 162] | 0.196 mL/min/mg protein | 1200 nM | 55 nM | 61% | 13.8 nM | 508 nM
8 | Cc1cc2c(n1C)CCCN(CCN1CCC(c3noc4ccccc34)CC1)C2=O [Example 166] | <0.05 mL/min/mg protein | 1000 nM | 6.22 nM | 57% | 0.17 nM | 139 nM
9 | Cc1cc2c(n1C)CCCN(CCN1CCN(c3nsc4ccccc34)CC1)C2=O [Example 167] | 0.413 mL/min/mg protein | 1800 nM | 0.84 nM | 60% | 0.14 nM | 71 nM
10 | Cn1nc2c(c1C(F)(F)F)C(=O)N(CCN1CCN(c3nsc4ccccc34)CC1)CC2 [Example 78] | 0.459 mL/min/mg protein | 5500 nM | 0.77 nM | 66% | 0.46 nM | 343 nM
11 | O=C1c2cncnc2CCN1CCN1CCN(c2nsc3ccccc23)CC1 [Example 58] | 0.092 mL/min/mg protein | 6000 nM | 42.1 nM | 51% | 6.9 nM | 780 nM
12 | O=C1c2[nH]ncc2CCN1CCN1CCC(c2noc3ccccc23)CC1 [Example 98, 6-{2-[4-(1,2-Benzoisoxazol-3-yl)piperidin-1-yl]ethyl}-1,4,5,6-tetrahydro-7H-pyrazolo[3,4-c]pyridin-7-one] | 0.013 mL/min/mg protein | 1100 nM | 755 nM | 43% | 11.6 nM | 312 nM
13 | O=C1c2cn[nH]c2CCCN1CCN1CCC(c2noc3ccccc23)CC1 [Example 97, 5-{2-[4-(1,2-Benzoisoxazol-3-yl)piperidin-1-yl]ethyl}-5,6,7,8-tetrahydropyrazolo[4,3-c]azepin-4(1H)-one] | <0.01 mL/min/mg protein | 2600 nM | 447 nM | 42% | 17.6 nM | 136 nM
14 | Cn1cc2c(n1)CCCN(CCN1CCN(c3nsc4ccccc34)CC1)C2=O [Example 42] | 0.100 mL/min/mg protein | 2400 nM | 23.5 nM | 57% | 2.19 nM | 119 nM
15 | Cc1nccc2c1C(=O)N(CCN1CCN(c3noc4ccccc34)CC1)CC2 [Example 85] | 0.046 mL/min/mg protein | > 10000 nM | 41.1 nM | 35% | 101 nM | 1070 nM
16 | COc1cc2c(cn1)C(=O)N(CCN1CCC(c3noc4ccccc34)CC1)CC2 [Example 14] | <0.01 mL/min/mg protein | 800 nM | 2.87 nM | 42% | 0.15 nM | 136 nM
17 | Cc1noc2ccn(CCN3CCC(c4noc5ccccc45)CC3)c(=O)c12 [Example 132] | 0.148 mL/min/mg protein | 700 nM | 74.5 nM | 59% | 16 nM | 750 nM
18 | Cc1noc2c1C(=O)N(CCN1CCC(c3noc4ccccc34)CC1)CC2 [Example 33] | 0.074 mL/min/mg protein | 600 nM | 463 nM | 49% | 9.35 nM | 1010 nM
19 | Cc1nc(C)c2c(=O)n(CCN3CCC(c4noc5ccccc45)CC3)ccc2n1 [Example 114, 6-{2-[4-(1,2-Benzoisoxazol-3-yl)piperidin-1-yl]ethyl}-2,4-dimethylpyrido[4,3-d]pyrimidin-5(6H)-one] | 0.102 mL/min/mg protein | 2700 nM | 43.8 nM | 64% | 11.3 nM | 309 nM
20 | Cc1ncc2c(n1)CCC(CCN1CCC(c3noc4ccccc34)CC1)C2=O (stereo not drawn) [Example 150] | <0.05 mL/min/mg protein | 1200 nM | 36.9 nM | 54% | 5.36 nM | 188 nM
21 | O=C1c2cn(-c3ccccc3)nc2CCN1CCN1CCN(c2nsc3ccccc23)CC1 [Example 168] | 0.924 mL/min/mg protein | < 300 nM | 100 nM | 52% | 1.02 nM | 145 nM
22 | Cc1ccc2onc(C3CCN(CCN4CCc5cccnc5C4=O)CC3)c2c1 [Example 89] | 0.050 mL/min/mg protein | 1300 nM | 53.8 nM | 39% | 3.44 nM | 2250 nM
23 | Cn1c(F)cc2c1CCN(CCN1CCN(c3nsc4ccccc34)CC1)C2=O [Example 112, 5-{2-[4-(1,2-Benzoisothiazol-3-yl)piperazin-1-yl]ethyl}-2-fluoro-1-methyl-1,5,6,7-tetrahydro-4H-pyrrolo[3,2-c]pyridin-4-one] | 0.459 mL/min/mg protein | 2200 nM | 9.44 nM | 64% | 1.58 nM | 169 nM
24 | Cn1ncc2c1CCN(CCN1CCN(c3nsc4ccccc34)CC1)C2=O [Example 63] | <0.01 mL/min/mg protein | 7800 nM | 16 nM | 73% | 6.5 nM | 791 nM
25 | CC1CN(CCN2CCN(c3nsc4ccccc34)CC2)C(=O)c2ccn(C)c21 (stereo not drawn) [Example 79] | 0.409 mL/min/mg protein | 4500 nM | 6.21 nM | 63% | 0.19 nM | 239 nM
26 | Cc1nc(C)c2c(n1)CCN(CCN1CCC(c3noc4ccccc34)CC1)C2=O [Example 139] | <0.05 mL/min/mg protein | 3800 nM | 72.7 nM | 48% | 20.3 nM | 635 nM
27 | Cn1cc2c(n1)CCCN(CCN1CCC(c3noc4ccccc34)CC1)C2=O [Example 41] | <0.01 mL/min/mg protein | 500 nM | 79.3 nM | 45% | 10.9 nM | 131 nM
